Assay [1] concerns isolated rabbit aorta rings; contraction induced by angiotensin II (AII). The assay can be described thus: Inhibition of vascular contraction in isolated rabbit aorta rings induced by angiotensin II (AII). The conditions noted are these: Oryctolagus cuniculus; isolated rabbit aorta rings in vitro, 37° C.; based on 3rd = submaximal agonist concentration; read-out: IC50 against contractions induced by AII. It is filed as cell-based. The method, then: Investigation of the inhibition of the contraction induced by agonists
Rabbits of either sex are stunned by a blow to the back of the head and bled out, or in some cases anaesthetised with Nembutal (about 60-80 mg/kg i.v.) and sacrificed by opening the thorax. The thorax aorta is removed, freed from adhering connective tissue, divided into ring segments 1.5 mm wide and individually transferred under an initial loading of about 3.5 g to 10 ml organ baths containing Krebs-Henseleit nutrient solution, which is temperature-controlled at 37° C. and aerated with 95% O2 /5% CO2, of the following composition: 119 mmol/l of NaCl; 2.5 mmol/l of CaCl2 ×2H2 O; 1.2 mmol/l of KH2 PO4; 10 mmol/l of glucose; 4.8 mmol/l of KCl; 1.4 mmol/l of MgSO4 ×7 H2 O and 25 mmol/l of NaHCO3.
The contractions are detected isometrically by Statham UC2 cells by means of bridge amplifiers (ifd Mulheim or DSM Aalen) and digitalised and assessed by means of A/D converters (System 570, Keithley Munich). Agonist dose response curves (DRC) are plotted hourly. With each DRC, 3 or 4 individual concentrations are applied to the baths at a 4 min interval. After the end of the DRC and subsequent washing-out cycles (16 times in each case about 5 sec/min with the abovementioned nutrient solution), a 28-minute rest or incubation phase follows, during which the contractions as a rule reach the starting value again.
The height of the 3rd DRC, in a normal case, is used as a reference variable for the assessment of the test substance to be investigated in further runs, which is applied to the baths in the following DRCs in increasing doses in each case at the start of the incubation period. Each aorta ring is in this case stimulated for the whole day, always with the same agonist.
Agonists and their standard concentrations (application
For the calculation of the IC50 (concentration at which the substance to be investigated causes a 50% inhibition), the effect is in each case based on the 3rd=submaximal agonist concentration.

Assay [2] has as its target T1, angiotensin II receptor (Bos taurus, UniProt P25104).
T1 construct: partially purified membrane fractions of bovine AGC using radioactive angiotensin II; from tissue; host or cells: bovine adrenal gland cortex, partially purified membrane fractions
T1 sequence (P25104 1-359): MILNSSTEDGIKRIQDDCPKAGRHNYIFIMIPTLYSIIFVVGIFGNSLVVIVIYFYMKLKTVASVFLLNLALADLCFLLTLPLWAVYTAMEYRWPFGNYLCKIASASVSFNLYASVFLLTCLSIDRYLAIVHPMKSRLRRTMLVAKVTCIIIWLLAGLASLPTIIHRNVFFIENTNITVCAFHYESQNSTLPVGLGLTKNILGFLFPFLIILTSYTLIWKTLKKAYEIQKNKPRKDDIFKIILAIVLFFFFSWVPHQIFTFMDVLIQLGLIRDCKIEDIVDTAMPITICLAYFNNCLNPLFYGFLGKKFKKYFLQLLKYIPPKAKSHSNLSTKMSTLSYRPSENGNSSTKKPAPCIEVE
The assay is described as follows: Interaction with the angiotensin II receptor in membrane fractions of the adrenal gland cortex (bovine), 3H-angiotensin II binding. The conditions noted are these: 3H-angiotensin II 3-5 nM, 60 min at room temperature, read-out: Ki, specific binding of 3H-angiotensin II. The text has this: Interaction of the compounds according to the invention with the angiotensin II receptor in membrane fractions of the adrenal gland cortex (bovine)
Bovine adrenal gland cortices (AGC), which have been freshly removed and carefully freed from gland medulla, are comminuted in sucrose solution (0.32M) with the aid of an Ultra-Turrax (Janke & Kunkel, Staufen i.B.) to give a coarse membrane homogenate and partially purified in two centrifugation steps to give membrane fractions. The receptor binding investigations are carried out on partially purified membrane fractions of bovine AGC using radioactive angiotensin II in an assay volume of 0.25 ml, which specifically contains the partially purified membranes (50-80 μg), ^3 H-angiotensin II (3-5 nM), test buffer solution (50 mM Tris, pH 7.2, 5 mM MgCl2) and the substances to be investigated. After an incubation time of 60 min at room temperature, the unbound radioactivity of the samples is separated by means of moistened glass fibre filters (Whatman GF/C) and the bound radioactivity is measured […] in a scintillation cocktail after washing the protein with ice-cold buffer solution (50 mM Tris/HCl, pH 7.4, 5% PEG 6000). The analysis of the raw data was carried out using computer programs to give Ki or IC50 values (Ki : IC50 values corrected for the radioactivity used; IC50 values: concentration at which the substance to be investigated causes a 50% inhibition of the specific binding of the radioligand).

The subject of assay [3] is smooth muscle cells. The assay can be described thus: Inhibition of the proliferation of smooth muscle cells (3H-thymidine incorporation). It is filed as cell-based, rats or pigs. Particulars: 10^-6 M, stimulated with AII, serum or other factors. The procedure: Investigation of the inhibition of the proliferation of smooth muscle cells by the compounds according to the invention
To determine the antiproliferative action of the compounds, smooth muscle cells are used which are obtained from aortas of rats or pigs by the media explant technique [R. Ross, J. Cell. Biol. 50, 172, 1971]. The cells are inoculated into suitable culture dishes, as a rule 24-hole plates, and cultured at 37° C. for 2-3 days in medium with addition of serum, 2 mmol L-glutamine and 15 mmol HEPES, pH 7.4 in 5% CO2. The cells are then synchronised by withdrawal of serum for 2-3 days and then stimulated into growth with AII, serum or other factors. Test compounds are simultaneously added. […]

In brackets after ≈: the same amount, converted by molar mass. Bounds are passed on as bounds.

On to `CCCCc1cc2ccccc2c(=O)n1Cc1ccc(-c2ccccc2-c2nnn[nH]2)cc1` [Example 2, 3-Butyl-2-{[2'-(tetrazol-5-yl)-biphenyl-4-yl]methyl}-isoquinolin-1(2H)-one], for which the IC50 (as a rule, the midpoint of a concentration-inhibition curve) in assay [1] came out at 0.23 µg/mL (≈ 0.528 µM). Besides, the Ki (commonly a dissociation constant, usually derived from enzyme kinetics or from competition with a known ligand) in assay [2] was determined as 0.042 µM.
Regarding `O=c1c2ccccc2cc(-c2ccccc2)n1Cc1ccc(-c2ccccc2-c2nnn[nH]2)cc1` [Example 6, 3-Phenyl-2-{[2'-(tetrazol-5-yl)-biphenyl-4-yl]methyl}-isoquinolin-1(2H)-one], in assay [1], the half-maximal inhibitory concentration (IC50) was more than 1 µg/mL. Also, the Ki in assay [2] was 2 µM. In addition, the inhibition – broadly, the share of the control response that was lost under treatment – at 1 µM in assay [3] was determined as 70%.
Regarding `CCc1cc2ccccc2c(=O)n1Cc1ccc(-c2ccccc2-c2nnn[nH]2)cc1` [Example 4, 3-Ethyl-2-{[2'-(tetrazol-5-yl)-biphenyl-4-yl]methyl}-isoquinolin-1(2H)-one], the IC50 in assay [1] came to 0.84 µg/mL (≈ 2.06 µM). Also, the Ki in assay [2] is 0.75 µM.

The values are drawn from patent US5407942A, “Biphenylmethyl-substituted pyridones” (Bayer Aktiengesellschaft, priority 1992, dated 1995).
